What was measured:
[1] = solubility of the drug in the acrylic-based polymer dermal composition

In the case of `Clc1cccc(Cl)c1N=C1NCCN1` [clonidine], the clonidine flux (increasing amount of hydroxy functional acrylic (DT 87-2287) versus carboxy functional DT 87-2852, FIG. 3, Examples 9-11 and Comparative Example 3 plotted) is reported as “increases the flux of the clonidine” and the “solubility of clonidine in the acrylic” value ([1]; in hydroxy functional acrylic compared with carboxy functional acrylic) is reported as “lower solubility”.
For `O=C(CCCN1CCC(O)(c2ccc(Cl)cc2)CC1)c1ccc(F)cc1` [haloperidol], the cumulative haloperidol flux (increasing amount of non-functional acrylic (HRJ 4483) versus carboxy functional DT 87-2196, FIG. 1, Examples 2 and 4 and Comparative Example 1 plotted) was “flux of the haloperidol across the skin increases” and the “solubility of the haloperidol in the dermal composition” value ([1]; increasing amount of non-functional acrylic in the dermal composition) was “reduces the solubility of the haloperidol”.
In the case of `CN1CCCC1c1cccnc1` (centres unmarked) [nicotine], the nicotine flux (increasing amount of non-functional acrylic (HRJ 4483) versus carboxy functional DT 87-2852, FIG. 2, Examples 5-7 and Comparative Example 2 plotted) is reported as “increasing flux”.
